Results: US12053458B2, “Treating sickle cell disease with a pyruvate kinase R activating compound” (Novo Nordisk Health Care AG, priority 2018, dated 2024)
“And” between values parts separate entries of the source, which are not always exact repeats. Equal entries are not always repeated.

What was measured:
[1] = target: T1, wt-PKR (Homo sapiens, UniProt P30613); assay: Enzyme assay: effect on Vmax and PEP Km, wt-PKR; type: biochemical; conditions: 2 μM Compound 1; for Vmax: WT-PKR, normalized to 1.00 relative to other values in the row
T1 sequence (P30613 whole entry): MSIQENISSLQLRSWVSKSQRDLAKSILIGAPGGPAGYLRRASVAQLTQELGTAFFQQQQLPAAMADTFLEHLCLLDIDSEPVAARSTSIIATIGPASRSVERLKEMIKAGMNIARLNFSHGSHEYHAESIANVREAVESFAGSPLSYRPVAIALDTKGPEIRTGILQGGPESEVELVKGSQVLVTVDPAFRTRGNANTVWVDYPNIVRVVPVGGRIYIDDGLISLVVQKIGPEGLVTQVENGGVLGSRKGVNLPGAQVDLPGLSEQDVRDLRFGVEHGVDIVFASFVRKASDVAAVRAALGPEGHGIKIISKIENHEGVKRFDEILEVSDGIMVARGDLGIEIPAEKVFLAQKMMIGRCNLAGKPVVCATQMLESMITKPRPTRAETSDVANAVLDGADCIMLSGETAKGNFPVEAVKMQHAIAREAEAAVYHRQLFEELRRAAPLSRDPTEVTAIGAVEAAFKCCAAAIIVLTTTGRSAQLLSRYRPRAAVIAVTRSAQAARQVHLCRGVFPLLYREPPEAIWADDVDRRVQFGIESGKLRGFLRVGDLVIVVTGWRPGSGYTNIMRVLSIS
Procedure: (§1) Tests were conducted in the presence and absence of fructose-1,6-bisphosphate (FBP), a known allosteric activator of PKR.

[2] = target: T2, PKR-R510Q (Homo sapiens, UniProt P30613, R510Q); assay: Enzyme assay: effect on Vmax and PEP Km, PKR-R510Q; type: biochemical; conditions: 2 μM Compound 1; for Vmax: PKR R510Q, normalized to 1.00 relative to other values in the row
T2 sequence (P30613 whole entry R510Q): as the sequence (P30613 whole entry) above, with R510Q counted along it
Procedure: as §1

[3] = target: T3, PKR (Mus musculus, UniProt P53657); assay: PKR activation in mouse red blood cells; type: cell-based; conditions: mouse RBCs
T3 construct: Mouse RBCs were isolated fresh from whole blood using a Ficoll gradient; endogenous in cells; host or cells: freshly isolated mouse red blood cells
T3 sequence (P53657 whole entry): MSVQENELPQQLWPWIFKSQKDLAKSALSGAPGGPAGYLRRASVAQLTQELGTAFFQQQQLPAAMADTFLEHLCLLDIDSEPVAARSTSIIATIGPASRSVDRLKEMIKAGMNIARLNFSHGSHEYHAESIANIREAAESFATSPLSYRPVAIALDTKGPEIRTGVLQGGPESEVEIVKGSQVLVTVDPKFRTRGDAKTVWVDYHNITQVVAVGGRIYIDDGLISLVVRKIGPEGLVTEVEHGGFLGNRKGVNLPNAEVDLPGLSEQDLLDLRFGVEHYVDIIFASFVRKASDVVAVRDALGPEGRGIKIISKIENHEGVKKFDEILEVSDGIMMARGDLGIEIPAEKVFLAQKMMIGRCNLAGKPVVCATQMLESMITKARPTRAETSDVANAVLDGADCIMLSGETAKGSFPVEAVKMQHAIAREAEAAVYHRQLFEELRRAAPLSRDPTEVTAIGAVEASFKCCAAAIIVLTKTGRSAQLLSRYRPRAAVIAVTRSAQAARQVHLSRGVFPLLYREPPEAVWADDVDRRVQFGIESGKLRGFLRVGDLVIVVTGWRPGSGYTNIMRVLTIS
Procedure: (§2) The activation of wt-PKR by Compound 1 in mature human erythrocytes ex vivo was evaluated in purified RBCs purchased from Research Blood Components. Cells treated with Compound 1 for 3 hr in glucose-containing media were washed, lysed, and assayed using a Biovision Pyruvate Kinase Assay (K709-100). The assay was repeated multiple times to account for donor-to-donor variability and the relatively narrow dynamic range.
Mouse RBCs were isolated fresh from whole blood using a Ficoll gradient and assayed with methods similar to those used in the human RBCs assays.

[4] = tested on: Berkeley SS mouse; assay: Berkeley SS mouse model of SCD, 7 days in chow; type: in vivo; conditions: 1000 ppm in chow
Source text: Targeted gene deletions and a human transgene in the Berkeley SS mouse model result in mice that express human HgbS almost exclusively (Pászty C. Transgenic and gene knock-out mouse models of sickle cell anemia and the thalassemias. Curr Opin Hematol. 1997 March; 4(2):88-93) and mimic the genetic, hematologic, and histopathologic features of SCD in humans. These include irreversibly sickled RBCs, anemia, and multi-organ pathology.
The effects of Compound 1 on Hgb affinity for oxygen, percentage of sickled cells, and/or Hgb were evaluated in the Berkley SS mouse. Two studies were conducted where mice received 0 or 1000 ppm Compound 1 ad libitum in mouse chow for 7 days. Blood was drawn on Day 7 and analyzed under hypoxic conditions. Red cell parameters were measured by ADVIA.

[5] = target: T1, wt-PKR; assay: PKR activation in mature human erythrocytes ex vivo (Biovision Pyruvate Kinase Assay); type: cell-based; parameters: evaluated in purified RBCs purchased from Research Blood Components; host or cells: purified mature human erythrocytes from donors; conditions: human RBCs, 3 hr treatment
Procedure: as §2

[6] = target: T2, PKR-R510Q; assay: Luminescence Assay (Kinase Glo Plus), PKR(R510Q); type: biochemical; conditions: 100 μM PEP, 100 μM ADP, read-out: AC50 (PKRR510Q)
Procedure: For each tested compound, the ability to activate PKR was determined using the following Luminescence Assay. The effect of phosphorylation of adenosine-5′-diphosphate (ADP) by PKR is determined by the Kinase Glo Plus Assay (Promega) in the presence or absence of FBP (D-fructose-1,6-diphosphate; BOC Sciences, CAS: 81028-91-3) as follows. Unless otherwise indicated, all reagents are purchased from Sigma-Aldrich. All reagents are prepared in buffer containing 50 mM Tris-HCl, 100 mM KCl, 5 mM MgCl2, and 0.01% Triton X100, 0.03% BSA, and 1 mM DTT. Enzyme and PEP (phosphoenolpyruvate) are added at 2× to all wells of an assay-ready plate containing serial dilutions of test compounds or DMSO vehicle. Final enzyme concentrations for PKR(wt), PKR(R510Q), and PKR(G332S) are 0.8 nM, 0.8 nM, and 10 nM respectively. Final PEP concentration is 100 μM. The Enzyme/PEP mixture is incubated with compounds for 30 minutes at RT before the assay is initiated with the addition of 2×ADP and KinaseGloPlus. Final concentration of ADP is 100 μM. […] For assays containing FBP, that reagent is added at 30 μM upon reaction initiation. Reactions are allowed to progress for 45 minutes at RT until luminescence is recorded by the BMG PHERAstar FS Multilabel Reader. The compound is tested in triplicate at concentrations ranging from 42.5 μM to 2.2 nM in 0.83% DMSO. […]

[7] = tested on: healthy volunteers; assay: Phase 1 single ascending dose (SAD) cohorts; type: in vivo, human
Source text: (§3) This is a first-in-human (FIH), Phase 1 study of Compound 1 that will characterize the safety, PK, and PD of Compound 1 after a single dose and after repeated dosing first in healthy adult volunteers and then in adolescents or adults with sickle cell disease. Initially, a dose range of Compound 1 in single ascending dose (SAD) escalation cohorts will be explored in healthy subjects. Enrollment of healthy subjects into 2-week multiple ascending dose (MAD) escalation cohorts will be initiated once the safety and PK from at least two SAD cohorts is available to inform the doses for the 2-week MAD portion of the study. The MAD cohorts will then run in parallel to the single dose cohorts. A single dose cohort is planned to understand food effects (FE) on the PK of Compound 1. […] Multiple dose studies in SCD subjects will then be initiated upon completion of MAD studies in healthy volunteers. Compound 1 will be administered in 25 mg and 100 mg tablets delivered orally.
(§4) Four healthy SAD cohorts were evaluated at doses of 200, 400, 700, and 1000 mg, and four healthy MAD cohorts received 200 to 600 mg total daily doses for 14 days at QD or BID dosing (100 mg BID, 200 mg BID, 300 mg BID, and 400 mg QD). In the food effect (FE) cohort, 10 healthy subjects received 200 mg of Compound 1 QD with and without food.
In the SAD cohorts, the subjects' blood 2,3-DPG levels were measured periodically after dosing by a qualified LC-MS/MS method for the quantitation of 2,3-DPG in blood. Decreased 2,3-DPG blood levels were observed 6 hours following a single dose of Compound 1 at all dose levels (earlier timepoints were not collected). Maximum decreases in 2,3-DPG levels generally occurred ˜24 hours after the first dose with the reduction sustained ˜48-72 hr postdose. Table 14 reports the median percentage change in 2,3-DPG blood levels, relative to baseline, measured over time in healthy volunteers after a single dose of Compound 1 (200 mg, 400 mg, 700 mg, or 1000 mg) or placebo. Accordingly, the median reduction in the concentration of 2,3-DPG, relative to baseline, was at least about 30% at all dose levels tested 24 hours after administration of the single dose.
In the SAD cohorts, the subjects' P50 (PO2 at 50% hemoglobin saturation) were determined 24-hours post-dose. P50 measured 24 hours after a single dose of Compound 1 were reduced at all dose levels tested (median reduction ranged from ˜3-5 mmHg). Table 15 reports the mean absolute change in P50, relative to baseline, measured 24 hours after a single dose of Compound 1 (200 mg, 400 mg, 700 mg, or 1000 mg) or placebo in healthy volunteers.
(§5) The following procedures are employed for the analysis of ATP and 2,3-DPG in human whole blood K2EDTA using a protein precipitation extraction procedure and analysis by LC-MS/MS.

[8] = target: T2, PKR-R510Q; assay: Enzyme assay: activation (rate of ATP formation) by different concentrations, PKR-R510Q; type: biochemical; conditions: PEP at or below Km
[9] = tested on: healthy volunteers; assay: Phase 1 multiple ascending dose (MAD) cohorts, 14 days; type: in vivo, human
Source text: as §3, §4
In the MAD cohorts, the subjects' blood 2,3-DPG levels were measured periodically after dosing by a qualified LC-MS/MS method for the quantitation of 2,3-DPG in blood. The maximum decrease in 2,3-DPG on Day 14 was 55% from baseline (median). […] Table 16 reports the median percentage change in 2,3-DPG blood levels, relative to baseline, measured over time after the first dose on days 1 and 14 in healthy volunteers who received daily doses of Compound 1 (100 mg BID, 200 mg BID, or 300 mg BID) or placebo for 14 days. Accordingly, the median reduction in the concentration of 2,3-DPG, relative to baseline, was at least about 25% at all dose levels tested 24 hours after administration of the first dose on day 1 and at least about 40% at all dose levels tested 24 hours after administration of the first dose on day 14.
In the MAD cohorts, the subjects' P50 (PO2 at 50% hemoglobin saturation) were determined on day 14. P50 values measured after 14 days of twice daily dosing were reduced at all dose levels tested (median reduction ranged from −3-5 mmHg). Table 17 reports the mean absolute change in P50, relative to baseline, measured on day 14 in healthy volunteers who received daily doses of Compound 1 (100 mg BID, 200 mg BID, or 300 mg BID) or placebo for 14 days.
In the MAD cohorts, the subjects' blood ATP levels were measured on day 14 by a qualified LC-MS/MS method for the quantitation of ATP in blood. […] Table 18 reports the median percentage change in blood ATP levels, relative to baseline, measured over time after the first dose on day 14 in healthy volunteers who received daily doses of Compound 1 (100 mg BID, or 200 mg BID) or placebo for 14 days.
as §5

[10] = target: T1, wt-PKR; assay: Enzyme assay: activation (rate of ATP formation) by different concentrations, wt-PKR; type: biochemical; conditions: PEP at or below Km
[11] = tested on: Balb/c mice; assay: PK/PD studies in wild type Balb/c mice, oral gavage QD×7; type: in vivo
Procedure: Two pharmacokinetic (PK)/phamacodynamic (PD) studies were conducted in Balb/c mice that were administered Compound 1 once daily by oral gavage (formulated in 10% Cremophor EL/10% PG/80% DI water) for 7 days (QD×7) at doses of 0 (vehicle), 3.75, 7.5, 15, 30, 60 mg/kg (Study 1); 0 (vehicle), 7.5, 15, 30, 60, 120, or 240 mg/kg (Study 2). On the 7th day, whole blood was collected 24 hours after dosing and snap frozen. Samples were later thawed and analyzed by LC/MS for 2,3-DPG and ATP levels.

[12] = SAD, all doses and timepoints, N = 24
[13] = MAD, all doses and timepoints, N = 36

`O=C([C@H](CO)c1ccccc1)N1CC2=C(C1)CN(S(=O)(=O)c1cnc3c(c1)OCCO3)C2` (single isomer, unassigned) [Compound 1] was tested, and the Vmax ([1]; 30 μM FBP) was 1.16, the Vmax ([1]; No FBP) was 1.14 and the “Effect on Vmax” value ([1]; wt-PKR) was “no effect to a modest increase”. For the same compound, the “Reduction of PEP Km” value ([1]; wt-PKR, presence or absence of FBP) was roughly 2 fold, the Vmax ([2]; 30 μM FBP) was 1.29 and the Vmax ([2]; No FBP) was 1.56. For the same compound, the “Effect on Vmax” value ([2]; PKR-R510Q) was “no effect to a modest increase”, the “Reduction of PEP Km” value ([2]; PKR-R510Q, presence or absence of FBP) was roughly 2 fold and the “Max − Min (%), Mean” value ([3]; mean of replicates) was less than 100%. For the same compound, the “Max − Min (%)” value ([3]; single replicates) was <50% and <100%, the Level of reticulocytes [4] was “reduced” and the “Oxygen affinity to Hgb under hypoxic conditions” value [4] was “increased”. For the same compound, the “Percentage of RBCs that sickled at low oxygen pressures” value [4] was “decreased”, the Time to sickle [4] was “increased” and the P50 ([4]; hypoxic conditions) was “decreased”. For the same compound, the EC50 ([5]; mean of replicates) was less than 125 nM, the “Max − Min (%)” value ([5]; single replicates) was <125% and <150% and <100% and <50% and the AC50 [6] was no more than 100 nM. The “Time of maximum decrease in 2,3-DPG levels after the first dose” value ([7]; SAD cohorts) was roughly 24 h, the “Serious adverse events / AEs leading to withdrawal” value ([7]; SAD cohorts 200-1000 mg) was “No serious adverse events (SAEs) or AEs leading to withdrawal were reported” and the “2,3-DPG, Mean Maximum Percent Change from Baseline” value [7, 12] was −46.8%. The “ATP, Mean Maximum Percent Change from Baseline” value [7, 12] was 24.4%, the “Median reduction in the concentration of 2,3-DPG relative to baseline” value ([7]; all dose levels, 24 hours after single dose) was “at least 30%” and the “Single dose exposure versus dose” value ([7]; doses ≥700 mg) was “increased in greater than dose-proportional manner”. The “Time of pharmacodynamic maximum (minimum of 2,3-DPG concentration)” value ([7]; single dose 400 mg) was roughly 24 h, the “Time of pharmacokinetic maximum (maximum of the PK curve)” value ([7]; single dose 400 mg) was 1 to 2 h and the “Maximum-fold Activation” value [8] was less than 3.0 fold. The “PK linearity, multiple doses” value ([9]; 100-300 mg BID, 400 mg QD) was “linear PK was observed across all dose levels”, the “Serious adverse events / AEs leading to withdrawal” value ([9]; MAD cohorts 200-600 mg total daily, 14 days) was “No serious adverse events (SAEs) or AEs leading to withdrawal were reported” and the “2,3-DPG, Mean Maximum Percent Change from Baseline” value [9, 13] was −56.3%. For the same compound, the “ATP, Mean Maximum Percent Change from Baseline” value [9, 13] was 68.5%, the “Median reduction of P50” value ([9]; after 14 days of twice daily dosing, all dose levels) was −3-5 mmHg and the “Blood ATP levels relative to baseline” value ([9]; day 14, remained so 60 hours after the last dose) was “elevated”. For the same compound, the “Exposure over time, multiple doses” value ([9]; up to day 14) was “remained steady up to day 14, without cumulative effect”, the “Maximum-fold Activation” value [10] was less than 2.0 fold and the Exposure versus dose ([11]; mice, oral) was “increased in a dose-proportional manner”. The Adverse clinical signs ([11]; oral QD×7, both studies) was “No adverse clinical signs were observed”, the Body weight change ([11]; oral QD×7, both studies) was “no differences in body weight change compared with the vehicle group” and the Tolerability ([11]; oral QD×7, up to 240 mg/kg, both studies) was “well tolerated up to the highest dose tested”.
